Experimental data from paper PMC10043283, “Neuraminidase 1 promotes renal fibrosis development in male mice” (Nature Communications, 2023).
pKd: −log10 of the molar value. Like-named read-outs stand apart in the source and are kept apart here.

Biological target: T1, NEU1 (neuraminidase 1) (Homo sapiens, UniProt Q99519)
T1 construct: recombinant human NEU1 protein
Assay: SPR (Biacore T200, NEU1 immobilized on CM5 chip)
Assay type: binding

Row | pKd (read-out: Kd) | Structure (SMILES) | pKd
1 | 4.28 | O=C(/C=C/c1ccc(O)c(O)c1/C=C/c1ccc(O)c(O)c1)O[C@H](Cc1ccc(O)c(O)c1)C(=O)O [SaA, salvianolic acid A] | 
2 | 7.67 | O=C(/C=C/c1ccc(O)c2c1[C@H](C(=O)O[C@H](Cc1ccc(O)c(O)c1)C(=O)O)[C@@H](c1ccc(O)c(O)c1)O2)O[C@H](Cc1ccc(O)c(O)c1)C(=O)O [SaB, salvianolic acid B] | 
3 |  | O=C(/C=C/c1ccc(O)c(O)c1)O[C@H](Cc1ccc(O)c(O)c1)C(=O)O [rosmarinic acid] | 6.85
